The text below walks through data of US5382596A, “Substituted 2-aminotetralins” (priority 1993, dated 1995).

The structures appear in SMILES notation. Where two headings read alike, the source gives them in different places.

One assay has as its target Dopamine D1 receptor (Bos taurus, UniProt Q95136). As to the kind of experiment: biochemical. The assay is classed as binding, bovine. As for the experimental part: (§1) Membranes were prepared using a Brinkmann Polytron and collected by centrifugation. Membrane sources were bovine caudate (D2,D1) or rat cortex (α2). The membranes were washed, resuspended, and incubated at 37° C. for 30 min. in either the presence (rat cortex) of 1 μ/ml adenosine deaminase or absence (bovine caudate) of 0.1 μ/ml adenosine deaminase. Membranes were centrifuged, washed once and frozen at -70° C. until used. Immediately before use, the membranes were thawed, washed once, and resuspended to a final concentration of 0.5-2 mg/ml. Assays were initiated by addition of membranes. For D2 and D1 assays, the radioligands and conditions used were ^3 H-Spiperone (RT, 75 min.) and ^3 H-SCH23390 (37° C., 15 min.), respectively. For α2 assays, ^3 H-PAC (RT, 30 min.) was used Assays were terminated by filtration using a Brandel cell harvester over Whatman GF/B filters that had been pretreated with 0.1% polyethylenimine. […]

Assay [1] deals with Dopamine D2 receptor (Bos taurus, UniProt P20288). Kind of assay: biochemical. Format: binding, bovine. As for the experimental part: as §1
Sequence of Dopamine D2 receptor (P20288 whole entry): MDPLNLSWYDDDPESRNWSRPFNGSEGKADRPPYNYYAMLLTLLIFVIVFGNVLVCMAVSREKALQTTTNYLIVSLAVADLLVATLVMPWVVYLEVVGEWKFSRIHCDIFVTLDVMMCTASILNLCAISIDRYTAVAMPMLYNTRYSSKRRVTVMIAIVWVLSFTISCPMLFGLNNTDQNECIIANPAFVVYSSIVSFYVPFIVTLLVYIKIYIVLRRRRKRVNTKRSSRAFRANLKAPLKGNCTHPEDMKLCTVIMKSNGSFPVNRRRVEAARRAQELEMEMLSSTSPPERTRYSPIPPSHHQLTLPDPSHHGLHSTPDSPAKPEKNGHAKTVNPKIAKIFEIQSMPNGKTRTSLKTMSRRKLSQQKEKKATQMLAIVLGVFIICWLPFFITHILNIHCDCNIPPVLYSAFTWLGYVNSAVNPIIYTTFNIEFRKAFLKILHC
For assay [2], the target named is dopamine D2 receptor (Mus musculus, UniProt P61168). Kind of assay: biochemical. Format: biochemical. As for the experimental part: Vasa deferentia from male BALB/C mice weighing approximately 30 g were removed and placed in isolated organ baths containing magnesium-free modified Krebs-Henseleit solution which was gassed with 95% O2 and 5% CO2 and maintained at 37° C. Tissues were set up under resting tension of 0.5 g and stimulated electrically at 60 volts, 0.1 Hz and 1 msec duration to produce a series of twitch responses. Tissues were pretreated with propranolol (1 μM) to block β-adrenoceptors, idazoxan (3 μM) to block α2 -adrenoceptors receptors, and ascorbic acid (100 μM) for 60 min before the addition of test compound.
Sequence of dopamine D2 receptor (P61168 whole entry): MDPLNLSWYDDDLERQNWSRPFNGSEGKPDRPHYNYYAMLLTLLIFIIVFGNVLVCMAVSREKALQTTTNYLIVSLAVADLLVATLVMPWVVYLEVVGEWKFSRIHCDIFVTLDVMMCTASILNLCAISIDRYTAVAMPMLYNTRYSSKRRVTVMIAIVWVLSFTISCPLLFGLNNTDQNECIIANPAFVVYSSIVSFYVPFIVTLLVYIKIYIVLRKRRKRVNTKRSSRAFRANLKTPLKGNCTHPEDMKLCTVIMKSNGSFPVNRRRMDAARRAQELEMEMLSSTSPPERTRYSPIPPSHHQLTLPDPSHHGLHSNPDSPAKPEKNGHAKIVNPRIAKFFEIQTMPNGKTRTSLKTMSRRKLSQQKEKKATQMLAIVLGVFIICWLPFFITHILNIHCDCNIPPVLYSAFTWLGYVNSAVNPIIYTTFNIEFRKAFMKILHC

Assay [3] concerns the target adrenergic α2 receptor (Rattus norvegicus, UniProt P22909). Kind of assay: Adrenergic α2 in vitro functional test (rat vas deferens, inhibition of twitch). Format: biochemical. Here is the method:
(§2) Vasa deferentia from male Sprague-Dawley rats weighing between 150-250 g were removed and placed in isolated organ baths containing Krebs-Henseleitsolution under a resting tension of 1 g. All other set up conditions were identical to those used for the mouse was deferens. Tissues were pretreated with propranolol (1 μM), ascorbic acid (100 μM) and the α1 -adrenergic antagonist prazosin (0.3 or 1 μM) for 60 min before the addition of test compound.

The subject of assay [4] is denervated supersensitive postsynaptic dopamine receptors. Kind of assay: In vivo functional test: contralateral circling in rats with unilateral 6-hydroxydopamine lesions of the substantia nigra. Conditions: contralateral circling, rats, unilateral 6-hydroxydopamine lesion. Also noted: species or system rat. The text has this:
Dopamine agonists produce contralateral circling behavior in rats in which unilateral lesions of the substantial nigra are made by prior injection of 6-hydroxydopamine. The circling is thought to be mediated by stimulation of denervated supersensitive postsynaptic dopamine receptors (Marshall and Ungerstedt, 1977, Eur. J. Pharmacol., 41:361-367).

In assay [5] the target is T1, adrenergic α2 receptor (Rattus norvegicus, UniProt P22909).
T1 sequence (P22909 1-465): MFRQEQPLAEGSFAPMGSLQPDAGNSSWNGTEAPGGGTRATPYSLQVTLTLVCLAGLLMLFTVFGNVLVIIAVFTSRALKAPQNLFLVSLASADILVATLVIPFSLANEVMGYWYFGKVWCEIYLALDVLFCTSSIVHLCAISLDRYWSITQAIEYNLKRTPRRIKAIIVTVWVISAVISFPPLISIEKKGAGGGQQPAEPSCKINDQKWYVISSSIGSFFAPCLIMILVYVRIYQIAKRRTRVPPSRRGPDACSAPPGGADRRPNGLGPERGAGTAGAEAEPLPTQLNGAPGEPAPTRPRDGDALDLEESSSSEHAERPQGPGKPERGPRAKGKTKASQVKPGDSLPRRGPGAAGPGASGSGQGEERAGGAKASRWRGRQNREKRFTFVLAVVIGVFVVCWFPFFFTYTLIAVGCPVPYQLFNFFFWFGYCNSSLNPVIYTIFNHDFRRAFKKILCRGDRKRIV
Kind of assay: Adrenergic α2 in vitro functional test (rat vas deferens, inhibition of twitch). The assay is classed as biochemical. As for the experimental part:
as §2
This is another data set of the same source.

Setting [6] is: bovine caudate membranes, 3H-SCH23390, 37° C., 15 min, read-out: D1 K1.
Setting [7] is: bovine caudate membranes, 3H-Spiperone, RT, 75 min, read-out: D2 K1.
Where [8] appears, read: concentration that produces 50% of the maximal inhibition of twitch, mouse vas deferens, read-out: D2 A50.
The mark [9] stands for this setting: concentration that produces 50% of the maximal inhibition of twitch, rat vas deferens, read-out: a2 A50.

Sequence of Dopamine D1 receptor (Q95136 whole entry): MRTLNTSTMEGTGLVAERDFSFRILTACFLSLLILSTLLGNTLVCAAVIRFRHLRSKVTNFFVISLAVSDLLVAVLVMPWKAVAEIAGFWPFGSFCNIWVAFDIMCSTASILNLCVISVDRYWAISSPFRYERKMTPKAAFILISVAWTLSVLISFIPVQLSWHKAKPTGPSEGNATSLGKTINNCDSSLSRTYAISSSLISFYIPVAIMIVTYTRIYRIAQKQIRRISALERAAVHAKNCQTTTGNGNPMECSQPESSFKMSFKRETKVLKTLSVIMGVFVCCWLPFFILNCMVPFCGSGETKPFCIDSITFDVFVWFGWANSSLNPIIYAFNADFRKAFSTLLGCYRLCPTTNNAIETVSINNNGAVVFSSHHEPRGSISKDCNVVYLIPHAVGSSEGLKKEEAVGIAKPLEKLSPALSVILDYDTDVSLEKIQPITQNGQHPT

As usually defined, the ED50 is the dose at which the effect has come halfway, by size or by number of responders. Higher therefore signals weaker potency. Consider `CCCN(CCOC)[C@H]1CCc2c(ccc(O)c2O)C1` [Example 4], for which the Ki on Dopamine D1 receptor (setting [6]) came out at 7080 nM; at Dopamine D2 receptor [1] (setting [7]), 363 nM. The EC50 at dopamine D2 receptor [2] (setting [8]) worked out at 0.603 nM; on adrenergic α2 receptor [3] it was 42.7 nM. The ED50 in assay [4] is 0.006 µmol/kg.
With `CCCN(CCC1CCOC1)[C@H]1CCc2c(O)cccc2C1` (some centres unmarked) [Example 24], the Ki at Dopamine D1 receptor (setting [6]) was determined as 5620 nM; on Dopamine D2 receptor [1] (setting [7]), 263 nM. The “Selectivity Ratio (D1 K1/D2 K1)” value on Dopamine D2 receptor [1] amounted to 21. The “Specificity Ratio (a2 A50/D2 A50)” value on dopamine D2 receptor [2] is 158. Moreover, the EC50 was found to be 0.776 nM on dopamine D2 receptor [2] (setting [8]) and 123 nM at adrenergic α2 receptor [5] (setting [9]). The ED50 in assay [4] turned out to be 0.020 µmol/kg.
`CCCN(CCC)C1CCc2c(O)cccc2C1` (centres unmarked) [Example 39, 5-hydroxy-2-(di-n-propyl)aminotetralin, reference compound]: the Ki is 3800 nM at Dopamine D1 receptor and 790 nM at Dopamine D2 receptor [1]. On Dopamine D2 receptor [1], the “Selectivity Ratio (D1 K1/D2 K1)” value came to 5. Further, the EC50 was found to be 2.14 nM on dopamine D2 receptor [2] and 257 nM at adrenergic α2 receptor [5]. In addition, the “Specificity Ratio (a2 A50/D2 A50)” value at dopamine D2 receptor [2] came out at 120. Besides, the ED50 in assay [4] is 0.010 µmol/kg.
With `CCCN(CCCOC)[C@H]1CCc2c(O)cccc2C1` [Example 41, (S)-5,6,7,8-tetrahydro-6-[(3-methoxypropyl)propylamino]-l-naphthalenol, reference compound], the Ki is 11000 nM at Dopamine D1 receptor (setting [6]) and 790 nM on Dopamine D2 receptor [1] (setting [7]). Also, the “Selectivity Ratio (D1 K1/D2 K1)” value on Dopamine D2 receptor [1] is recorded as 14. For the same molecule, the “Specificity Ratio (a2 A50/D2 A50)” value on dopamine D2 receptor [2] is 257. Besides, the EC50 was found to be 0.91 nM at dopamine D2 receptor [2] (setting [8]) and 234 nM at adrenergic α2 receptor [5] (setting [9]). Moreover, the ED50 in assay [4] turned out to be 0.020 µmol/kg.
